How the values were obtained:
[1] = biological target: T1, Recombinant human CD38 (Homo sapiens, UniProt P28907); test: Human CD38 hydrolase assay (fluorescence-based, ε-NAD substrate); type: biochemical; details: recombinant human CD38 0.8 nM, 4 μM ε-NAD, 30 min preincubation at 25° C.
T1 sequence (P28907 1-300): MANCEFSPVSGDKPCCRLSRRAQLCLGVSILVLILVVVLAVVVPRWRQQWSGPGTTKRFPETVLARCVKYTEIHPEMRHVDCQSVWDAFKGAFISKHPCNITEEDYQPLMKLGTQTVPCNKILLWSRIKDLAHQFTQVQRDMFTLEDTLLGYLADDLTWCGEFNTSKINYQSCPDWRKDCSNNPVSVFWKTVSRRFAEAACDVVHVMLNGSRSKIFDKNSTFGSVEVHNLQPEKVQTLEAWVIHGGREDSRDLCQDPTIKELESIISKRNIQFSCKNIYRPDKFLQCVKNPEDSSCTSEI
Method: The ability of test compounds to inhibit human CD38 hydrolase activity was measured in a fluorescence-based assay using non-physiological NAD^+ substrate analogue 1,N^6-etheno NAD^+ (ε-NAD). Recombinant human CD38 (0.8 nM) was preincubated with test compounds in 384-well black microplates for 30 min at 25° C. in PBS (—Ca^2+/Mg^2+) containing 0.005% BSA (pH 7.4). CD38 hydrolase activity was initiated by addition of 4 μM ε-NAD, which yields the fluorescent product 1,N^6-etheno ADP-ribose. Formation of fluorescent product was followed using ClarioStar Plus (BMG) microplate reader by reading fluorescence (excitation λ=300 nm; emission λ=410 nm) at two time points, one immediately after substrate addition (t=0) and one at 10 min (t=10). Data was analysed by subtracting the values detected at t=0 from t=10 to correct for variation in baseline fluorescence. Fluorescence values were converted to percent inhibition using the average of high signal (CD38 and ε-NAD) and low signal (CD38 and ε-NAD in the presence of a tool CD38 inhibitor) control wells. IC50 values were determined from a 10-point, half log concentration response curve with a four-parameter logistic equation.

[2] = biological target: T2, Recombinant mouse CD38 (Mus musculus, UniProt P56528); test: Mouse CD38 hydrolase assay (fluorescence-based, ε-NAD substrate); type: biochemical; details: recombinant mouse CD38 0.4 nM, 12 μM ε-NAD, 30 min preincubation at 25° C.
T2 sequence (P56528 1-304): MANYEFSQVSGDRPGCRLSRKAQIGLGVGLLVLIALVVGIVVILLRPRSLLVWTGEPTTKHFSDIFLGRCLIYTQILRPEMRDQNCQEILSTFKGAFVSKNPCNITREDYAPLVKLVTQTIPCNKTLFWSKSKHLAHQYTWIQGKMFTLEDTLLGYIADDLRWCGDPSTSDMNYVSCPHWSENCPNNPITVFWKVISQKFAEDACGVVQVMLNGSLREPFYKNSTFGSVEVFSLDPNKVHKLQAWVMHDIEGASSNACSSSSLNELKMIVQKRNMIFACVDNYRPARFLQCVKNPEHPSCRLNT
Method: The ability of test compounds to inhibit mouse CD38 hydrolase activity was measured in a fluorescence-based assay using non-physiological NAD^+ substrate analogue 1,N^6-etheno NAD^+ (&-NAD). Recombinant mouse CD38 (0.4 nM) was preincubated with test compounds in 384-well black microplates for 30 min at 25° C. in PBS (—Ca^2+/Mg^2+) containing 0.005% BSA (pH 7.4). CD38 hydrolase activity was initiated by addition of 12 μM ε-NAD, which yields the fluorescent product 1,N^6-etheno ADP-ribose. Formation of fluorescent product was followed using ClarioStar Plus (BMG) microplate reader by reading fluorescence (excitation λ=300 nm; emission λ=410 nm) at two time points, one immediately after substrate addition (t=0) and one at 6 min (t=6).
Data was analysed by subtracting the values detected at t=0 from t=6 to correct for variation in baseline fluorescence. Fluorescence values were converted to percent inhibition using the average of high signal (CD38 and ε-NAD) and low signal (CD38 and ε-NAD in the presence of a tool CD38 inhibitor) control wells. IC50 values were determined from a 10-point, halflog concentration response curve with a four-parameter logistic equation.

Compound | IC50 [1] | IC50 [2]
O=C(NC1CC2(CC(NCC(F)(F)F)C2)C1)c1nc(-n2ccnc2)nn2cccc12 (single isomer, unassigned) [Example 9, 2-(1H-imidazol-1-yl)-N-(6-((2,2,2-trifluoroethyl)amino)spiro[3.3]heptan-2-yl)pyrrolo[2,1-f][1,2,4]triazine-4-carboxamide] | ≤ 40 nM | ≤ 40 nM
O=C(NC1CC2(CC(NCC(F)(F)F)C2)C1)c1nc(-n2ccnc2)nn2cccc12 (single isomer, unassigned) [Example 10, 2-(1H-imidazol-1-yl)-N-(6-((2,2,2-trifluoroethyl)amino)spiro[3.3]heptan-2-yl)pyrrolo[2,1-f][1,2,4]triazine-4-carboxamide] | ≤ 40 nM | ≤ 40 nM
O=C(NC1CCOCC1)c1nc(-n2ccnc2)cc2nccn12 [Example 1, 7-(1H-imidazol-1-yl)-N-(tetrahydro-2H-pyran-4-yl) imidazo[1,2-c]pyrimidine-5-carboxamide] | ≤ 100 nM | ≤ 40 nM
O=C(NC1CCOCC1)c1nc(-n2ccnc2)nc2ncccc12 [Example 3, 2-(1H-imidazol-1-yl)-N-(tetrahydro-2H-pyran-4-yl)pyrido[2,3-d]pyrimidine-4-carboxamide] | ≤ 40 nM | ≤ 40 nM
O=C(N[C@H]1CC[C@H](NCC(F)(F)F)CC1)c1nc(-c2cncs2)cn2cccc12 [Example 5, 3-(thiazol-5-yl)-N-((1r,4r)-4-((2,2,2-trifluoroethyl)amino)cyclohexyl)pyrrolo[1,2-a]pyrazine-1-carboxamide] | ≤ 1000 nM | ≤ 40 nM
O=C(N[C@H]1CC[C@H](NCC(F)(F)F)CC1)c1cc2cccnc2c(-n2ccnc2)n1 [Example 6, 8-(1H-imidazol-1-yl)-N-((1r,4r)-4-((2,2,2-trifluoroethyl)amino)cyclohexyl)-1,7-naphthyridine-6-carboxamide] | ≤ 10000 nM | –
O=C(N[C@H]1CC[C@H](NCC(F)(F)F)CC1)c1cc2cccnc2c(-c2cncs2)n1 [Example 7, 8-(thiazol-5-yl)-N-((1r,4r)-4-((2,2,2-trifluoroethyl)amino)cyclohexyl)-1,7-naphthyridine-6-carboxamide] | ≤ 1000 nM | ≤ 40 nM
O=C(N[C@H]1C[C@H](NCC(F)(F)F)C1)c1nc(-n2ccnc2)nn2cccc12 [Example 11, 2-(1H-imidazol-1-yl)-N-((1r,3r)-3-((2,2,2-trifluoroethyl)amino)cyclobutyl)pyrrolo[2,1-f][1,2,4]triazine-4-carboxamide] | ≤ 40 nM | ≤ 40 nM
O=C(N[C@H]1CC[C@H](NCC(F)(F)F)CC1)c1cn2cccc2c(-n2ccnc2)n1 [Example 15, 1-(1H-imidazol-1-yl)-N-((1r,4r)-4-((2,2,2-trifluoroethyl)amino)cyclohexyl)pyrrolo[1,2-a]pyrazine-3-carboxamide] | ≤ 40 nM | ≤ 40 nM
Cn1cncc1-c1nc(C(=O)N[C@H]2CC[C@H](NCC(F)(F)F)CC2)c2cccn2n1 [Example 17, 2-(1-methyl-1H-imidazol-5-yl)-N-((1r,4r)-4-((2,2,2-trifluoroethyl)amino)cyclohexyl)pyrrolo[2,1-f][1,2,4]triazine-4-carboxamide] | ≤ 40 nM | ≤ 40 nM
O=C(N[C@H]1CC[C@H](NCC(F)(F)F)CC1)c1nc(-c2cncn2CCO)nn2cccc12 [Example 18, 2-(1-(2-hydroxyethyl)-1H-imidazol-5-yl)-N-((1r,4r)-4-((2,2,2-trifluoroethyl)amino)cyclohexyl)pyrrolo[2,1-f][1,2,4]triazine-4-carboxamide] | ≤ 40 nM | ≤ 40 nM
O=C(N[C@H]1CC[C@H](N2CC[C@H](O)C2)CC1)c1nc(-n2ccnc2)nn2cccc12 [Example 23, N-((1S,4r)-4-((S)-3-hydroxypyrrolidin-1-yl)cyclohexyl)-2-(1H-imidazol-1-yl)pyrrolo[2,1-f][1,2,4]triazine-4-carboxamide] | ≤ 40 nM | ≤ 40 nM
O=C(N[C@H]1CC[C@H](N2CCC(F)(F)C2)CC1)c1cn2nccc2c(-n2ccnc2)n1 [Example 34, N-((1r,4r)-4-(3,3-difluoropyrrolidin-1-yl)cyclohexyl)-4-(1H-imidazol-1-yl)pyrazolo[1,5-a]pyrazine-6-carboxamide] | ≤ 1000 nM | –
O=C(N[C@H]1CC[C@H](N2CCCC2)CC1)c1nc(-n2ccnc2)nn2cccc12 [Example 43, 2-(1H-imidazol-1-yl)-N-((1r,4r)-4-(pyrrolidin-1-yl)cyclohexyl)pyrrolo[2,1-f][1,2,4]triazine-4-carboxamide] | ≤ 40 nM | –
O=C(N[C@H]1CC[C@H](NCC(F)(F)F)CC1)c1cc2ncnn2c(-n2ccnc2)n1 [Example 60, 5-(1H-imidazol-1-yl)-N-((1r,4r)-4-((2,2,2-trifluoroethyl)amino)cyclohexyl)-[1,2,4]triazolo[1,5-c]pyrimidine-7-carboxamide] | ≤ 1000 nM | –

The remaining lines, values ahead:

IC50 [1] | IC50 [2] | Compound
≤ 40 nM | ≤ 40 nM | O=C(N[C@H]1CC[C@H](NCC(F)(F)F)CC1)c1nc(-n2ccnc2)cc2nccn12 [Example 2, 7-(1H-imidazol-1-yl)-N-((1r,4r)-4-((2,2,2-trifluoroethyl)amino)cyclohexyl) imidazo[1,2-c]pyrimidine-5-carboxamide]
≤ 40 nM | ≤ 40 nM | O=C(NC1CCC2(CC1)CN(CC(F)(F)F)C2)c1nc(-n2ccnc2)nn2cccc12 [Example 8, 2-(1H-imidazol-1-yl)-N-(2-(2,2,2-trifluoroethyl)-2-azaspiro[3.5]nonan-7-yl)pyrrolo[2,1-f][1,2,4]triazine-4-carboxamide]
≤ 1000 nM | ≤ 40 nM | O=C(N[C@H]1CC[C@H](NCC(F)(F)F)CC1)c1nc(-n2ccnc2)c2cccn2n1 [Example 16, 4-(1H-imidazol-1-yl)-N-((1r,4r)-4-((2,2,2-trifluoroethyl)amino)cyclohexyl)pyrrolo[2,1-f][1,2,4]triazine-2-carboxamide]
≤ 1000 nM | ≤ 40 nM | O=C(N[C@H]1CC[C@H](N2CC[C@H](F)C2)CC1)c1cn2cccc2c(-n2ccnc2)n1 [Example 22, N-((1S,4r)-4-((S)-3-fluoropyrrolidin-1-yl)cyclohexyl)-1-(1H-imidazol-1-yl)pyrrolo[1,2-a]pyrazine-3-carboxamide]
≤ 1000 nM | ≤ 40 nM | O=C(N[C@H]1CC[C@H](N2CC[C@@H](F)C2)CC1)c1cn2cccc2c(-n2ccnc2)n1 [Example 24, N-((1R,4r)-4-((R)-3-fluoropyrrolidin-1-yl)cyclohexyl)-1-(1H-imidazol-1-yl)pyrrolo[1,2-a]pyrazine-3-carboxamide]
≤ 1000 nM | ≤ 40 nM | O=C(N[C@H]1CC[C@H](N2CC[C@H](F)C2)CC1)c1cn2ncnc2c(-n2ccnc2)n1 [Example 25, N-((1S,4r)-4-((S)-3-fluoropyrrolidin-1-yl)cyclohexyl)-8-(1H-imidazol-1-yl)-[1,2,4]triazolo[1,5-a]pyrazine-6-carboxamide]
≤ 100 nM | ≤ 40 nM | O=C(N[C@H]1CC[C@H](N2CC[C@@H](F)C2)CC1)c1cn2ncnc2c(-n2ccnc2)n1 [Example 26, N-((1R,4r)-4-((R)-3-fluoropyrrolidin-1-yl)cyclohexyl)-8-(1H-imidazol-1-yl)-[1,2,4]triazolo[1,5-a]pyrazine-6-carboxamide]
≤ 1000 nM | – | O=C(N[C@H]1CC[C@H](N2CCOCC2)CC1)c1cn2ncnc2c(-n2ccnc2)n1 [Example 49, 8-(1H-imidazol-1-yl)-N-((1r,4r)-4-morpholinocyclohexyl)-[1,2,4]triazolo[1,5-a]pyrazine-6-carboxamide]
